Consider 10 molecules from PubChem BioAssay AID258 (DTP/NCI, 2004).

Where “and” joins values, the source holds several entries; their conditions need not be identical. Equal values may be shown once. Toxic doses and inconclusive results are not listed.

The test system of the experiment is CD2F1 mice, L1210 leukemia sc, survival T/C. Put plainly: NCI In Vivo Anticancer Drug Screen. Data for tumor model L1210 Leukemia (subcutaneous) in CD2F1 (CDF1) mice. To be noted: endpoint: median survival time, higher = longer survival. Put shortly:
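Transplantable tumor-bearing mice were treated with compound; survival or tumor size measured and expressed as treated-group value (T) divided by vehicle-treated control value (C).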

Where [1] appears, read: dose: 6.0 mg/kg/injection, schedule: Q01DX009 (ip), vehicle: saline.
Setting [2] is: dose: 6.25 mg/kg/injection, schedule: Q01DX009 (ip), vehicle: saline.
The mark [3] stands for this setting: dose: 12.5 mg/kg/injection, schedule: Q01DX009 (ip), vehicle: saline.
The mark [4] stands for this setting: dose: 50.0 mg/kg/injection, schedule: Q01DX009 (ip), vehicle: saline.
The mark [5] stands for this setting: dose: 25.0 mg/kg/injection, schedule: Q01DX009 (ip), vehicle: saline.
Where [6] appears, read: dose: 100.0 mg/kg/injection, schedule: Q01DX009 (ip), vehicle: saline.

Consider `C[C@@](O)(/C=C/[C@H]1CC=CC(=O)O1)[C@@H](C[C@@H](O)\C=C/C=C\C=C\CO)OP(=O)(O)O`, for which the T/C is 104 % of control (dose: 0.78 mg/kg/injection, schedule: Q01DX009 (ip), vehicle: other); 116 % of control (dose: 1.56 mg/kg/injection, schedule: Q01DX009 (ip), vehicle: other); 157 % of control (dose: 3.13 mg/kg/injection, schedule: Q01DX009 (ip), vehicle: other); 197 % of control (dose: 6.25 mg/kg/injection, schedule: Q01DX009 (ip), vehicle: other).
Take `CC1CN1CCS(=O)(=O)CCN1CC1C` (stereo unspecified): the T/C reads like this: (dose: 0.17 mg/kg/injection, schedule: Q01DX Z (sc), vehicle: other) 100 % of control; (dose: 2.16 mg/kg/injection, schedule: Q01DX Z (sc), vehicle: other) 100 % of control; (dose: 3.6 mg/kg/injection, schedule: Q01DX Z (sc), vehicle: other) 122 % of control; (dose: 6.0 mg/kg/injection, schedule: Q01DX Z (sc), vehicle: other) 122 % of control.
As to `CC(C)(C)N1CC1CNC(=O)C(=O)NCC1CN1C(C)(C)C` (stereo unspecified), the T/C (dose: 3.13 mg/kg/injection, schedule: Q01DX009 (ip), vehicle: saline with Tween-80) is 107 % of control and 108 % of control; the T/C (dose: 6.25 mg/kg/injection, schedule: Q01DX009 (ip), vehicle: saline with Tween-80) is 122 % of control; the T/C (dose: 12.5 mg/kg/injection, schedule: Q01DX009 (ip), vehicle: saline with Tween-80) is 157 % of control; the T/C (dose: 25.0 mg/kg/injection, schedule: Q01DX009 (ip), vehicle: saline with Tween-80) was 86 % of control.
Take `O=c1[nH]cc(F)c(=O)[nH]1`: the T/C was 109 % of control and 94 % of control (dose: 2.5 mg/kg/injection, schedule: Q01DX009 (ip), vehicle: saline); 101 % of control and 106 % of control (dose: 5.0 mg/kg/injection, schedule: Q01DX009 (ip), vehicle: saline); 111 % of control under setting [1]; 110 % of control (dose: 6.0 mg/kg/injection, schedule: Q01DX009 (sc), vehicle: saline); 93 % of control under setting [2]; 108 % of control and 114 % of control and 117 % of control (dose: 10.0 mg/kg/injection, schedule: Q01DX009 (ip), vehicle: saline). The T/C runs as follows: (dose: 10.0 mg/kg/injection, schedule: Q01DX009 (sc), vehicle: saline) 102 % of control; (dose: 12.5 mg/kg/injection, schedule: Q01DX006 (ip), vehicle: saline) 105 % of control; under setting [3], 112 % of control; (dose: 12.5 mg/kg/injection, schedule: Q02DX005 (ip), vehicle: saline) 111 % of control; (dose: 16.0 mg/kg/injection, schedule: Q01DX009 (sc), vehicle: saline) 150 % of control; (dose: 20.0 mg/kg/injection, schedule: Q01DX009 (sc), vehicle: saline) 118 % of control. Besides, the T/C was 155 % of control (dose: 24.0 mg/kg/injection, schedule: Q01DX009 (ip), vehicle: saline); 152 % of control and 168 % of control (dose: 24.0 mg/kg/injection, schedule: Q01DX009 (sc), vehicle: saline); 112 % of control (dose: 25.0 mg/kg/injection, schedule: Q02DX005 (ip), vehicle: saline); 100 % of control (dose: 25.0 mg/kg/injection, schedule: Q04DX003 (ip), vehicle: saline); 152 % of control (dose: 26.7 mg/kg/injection, schedule: Q01DX009 (sc), vehicle: saline); 104 % of control and 114 % of control and 94 % of control (dose: 40.0 mg/kg/injection, schedule: Q01DX009 (ip), vehicle: saline). Moreover, the T/C runs as follows: (dose: 40.0 mg/kg/injection, schedule: Q01DX009 (sc), vehicle: saline) 151 % of control and 160 % of control; (dose: 48.0 mg/kg/injection, schedule: Q01DX009 (ip), vehicle: saline) 102 % of control; (dose: 48.0 mg/kg/injection, schedule: Q01DX009 (sc), vehicle: saline) 117 % of control; (dose: 50.0 mg/kg/injection, schedule: Q01DX001 (ip), vehicle: saline) 111 % of control; under setting [4], 150 % of control; (dose: 50.0 mg/kg/injection, schedule: Q04DX003 (ip), vehicle: saline) 100 % of control. Also, the T/C (dose: 60.0 mg/kg/injection, schedule: Q01DX009 (sc), vehicle: saline) is 161 % of control; the T/C (dose: 65.0 mg/kg/injection, schedule: Q01DX Z (sc), vehicle: saline) was 112 % of control; the T/C (dose: 80.0 mg/kg/injection, schedule: Q01DX009 (ip), vehicle: saline) was 103 % of control; the T/C (dose: 96.0 mg/kg/injection, schedule: Q01DX009 (ip), vehicle: saline) was 91 % of control; the T/C (dose: 96.0 mg/kg/injection, schedule: Q01DX009 (sc), vehicle: saline) was 88 % of control; the T/C (dose: 100.0 mg/kg/injection, schedule: Q01DX001 (ip), vehicle: saline) was 122 % of control. The T/C is 175 % of control (dose: 100.0 mg/kg/injection, schedule: Q02DX005 (ip), vehicle: saline); 155 % of control (dose: 100.0 mg/kg/injection, schedule: Q04DX003 (ip), vehicle: saline); 112 % of control (dose: 108.0 mg/kg/injection, schedule: Q01DX Z (sc), vehicle: saline); 108 % of control (dose: 180.0 mg/kg/injection, schedule: Q01DX Z (sc), vehicle: saline); 122 % of control (dose: 400.0 mg/kg/injection, schedule: Q01DX001 (ip), vehicle: saline).
Consider `COC12C(COC(N)=O)C3=C(C(=O)C(C)=C(N)C3=O)N1CC1C2N1C` (stereo unspecified), for which the T/C reads like this: (dose: 2.0 mg/kg/injection, schedule: Q01DX009 (ip), vehicle: saline) 101 % of control; (dose: 3.75 mg/kg/injection, schedule: Q01DX009 (ip), vehicle: saline) 105 % of control; (dose: 4.0 mg/kg/injection, schedule: Q01DX009 (ip), vehicle: saline) 120 % of control; (dose: 7.5 mg/kg/injection, schedule: Q01DX009 (ip), vehicle: saline) 110 % of control; (dose: 15.0 mg/kg/injection, schedule: Q01DX009 (ip), vehicle: saline) 117 % of control; (dose: 16.0 mg/kg/injection, schedule: Q01DX009 (ip), vehicle: saline) 101 % of control.
In the case of `COc1cccc2c1C(=O)c1c(O)c3c(c(O)c1C2=O)CC(O)(C(=O)CO)CC3OC1CC(N)C(O)C(C)O1` (stereo unspecified), the T/C reads like this: (dose: 2.9 mg/kg/injection, schedule: Q01DX009 (ip), vehicle: saline) 104 % of control; (dose: 5.8 mg/kg/injection, schedule: Q01DX009 (ip), vehicle: saline) 105 % of control; (dose: 11.7 mg/kg/injection, schedule: Q01DX009 (ip), vehicle: saline) 106 % of control; (dose: 23.4 mg/kg/injection, schedule: Q01DX009 (ip), vehicle: saline) 115 % of control; (dose: 46.8 mg/kg/injection, schedule: Q01DX009 (ip), vehicle: saline) 111 % of control.
Regarding `Cc1c(-c2ccc(-c3ccccc3F)cc2)nc2ccc(F)cc2c1C(=O)O`, the T/C under setting [3] is 153 % of control, the T/C under setting [5] is 156 % of control and the T/C under setting [4] was 150 % of control.
Take `Nc1c(/C=C/c2cc3cc(C4=NCCN4)ccc3o2)[nH]c2cc(C3=NCCN3)ccc12`: the T/C is 100 % of control (dose: 3.12 mg/kg/injection, schedule: Q01DX009 (ip), vehicle: Klucel (hydroxypropylcellulose) (HPC)); 100 % of control (dose: 6.25 mg/kg/injection, schedule: Q01DX009 (ip), vehicle: Klucel (hydroxypropylcellulose) (HPC)); 96 % of control (dose: 12.5 mg/kg/injection, schedule: Q01DX009 (ip), vehicle: Klucel (hydroxypropylcellulose) (HPC)); 106 % of control (dose: 25.0 mg/kg/injection, schedule: Q01DX009 (ip), vehicle: Klucel (hydroxypropylcellulose) (HPC)).
`NCCCNCCCCNC(=O)C(O)NC(=O)CC(O)CCCCN=C(N)N` (stereo unspecified): the T/C (dose: 3.0 mg/kg/injection, schedule: Q01DX009 (ip), vehicle: saline) was 156 % of control; the T/C under setting [1] was 168 % of control; the T/C under setting [2] is 163 % of control; the T/C (dose: 12.0 mg/kg/injection, schedule: Q01DX009 (ip), vehicle: saline) was 196 % of control; the T/C under setting [3] was 184 % of control; the T/C under setting [5] was 208 % of control and 210 % of control. In addition, the T/C is, setting by setting: under setting [4], 198 % of control and 216 % of control; under setting [6], 220 % of control.
`CCN(CC)CCNc1ccc(C)c2sc3ccccc3c(=O)c12`: the T/C under setting [5] was 116 % of control; the T/C under setting [6] was 158 % of control; the T/C (dose: 200.0 mg/kg/injection, schedule: Q01DX009 (ip), vehicle: saline) is 87 % of control.
